Several values for one entry are separate records, joined by “and”; a condition that tells them apart may be missing. Identical values can stand only once. Like-named read-outs stand apart in the source and are kept apart here.
How the values were obtained:
mGluR3-I788A = mGluR3-I788A (Rattus norvegicus, UniProt P31422, I788A); assay: Calcium imaging in HEK 293 T cells; assay type: cell-based; parameters: we performed calcium imaging experiments with mutations in the full-length mGluR2 background; expressed in transfected cells; host or cells: HEK 293 T; Calcium response amplitude: scale not given here; conditions: for Calcium response amplitude: mGluR3-I788A
Procedure: Approximately 30 ROIs were analyzed per movie.

mGluR3-C127A-3xTM4 = mGluR3-C127A-3xTM4 (Rattus norvegicus, UniProt P31422, C127A/F690A/G694A/S686A); assay: SiMPull subunit counting in the presence of ligands; conditions: SNAP-mGluR3-C127A-3xTM4 in presence of the ligand; single replicates per experiment day
mGluR2 = mGluR2 (Rattus norvegicus, UniProt P31421); assay: Inter-LBD FRET (N-terminal SNAP-tags), live cells; conditions: mGluR2, inter-LBD FRET
mGluR3-S686A = mGluR3-S686A (Rattus norvegicus, UniProt P31422, S686A); assay: Calcium imaging in HEK 293 T cells
mGluR2-3xTM4 = mGluR2-3xTM4 (Rattus norvegicus, UniProt P31421, A677S/A681F/A685G); assay: Calcium imaging (G protein chimera, GCaMP6f) in HEK 293 T cells; conditions: normalized to 1 mM glutamate, replicates
mGluR2-C121A = target: T1, mGluR2-C121A (Rattus norvegicus, UniProt P31421, C121A); assay: SiMPull subunit counting in the presence of ligands; conditions: SNAP-mGluR2-C121A in presence of the ligand; single replicates per experiment day
T1 construct: expressed in transfected cells; host or cells: HEK 293 T (detergent lysate, pulled down by anti-HA antibody)

mGluR3-3xTM4 [1] = target: mGluR3-3xTM4 (Rattus norvegicus, UniProt P31422, F690A/G694A/INS669ASEIGTGFPFDPHYVEVLGERMHYVDVGPRDGTPVLFLHGNPTSSYVWRNIIPHVAPTHRCIAPDLIGMGKSDKPDLGYFFDDHVRFMDAFIEALGLEEVVLVIHDWGSALGFHWAKRNPERVKGIAFMEFIRPIPTWDEWPEFARETFQAFRTTDVGRKLIIDQNVFIEGTLPMGVVRPLTEVEMDHYREPFLNPVDREPLWRFPNELPIAGEPANIVALVEEYMDWLHQSPVPKLLFWGTPGVLIPPAEAARLAKSLPNCKAVDIGPGLNLLQEDNPDLIGSEIARWLSTLEISGLE/S686A); assay: Inter-TMD FRET sensor (HaloTag in ICL2), live cells; conditions: for FRET response amplitude: mGluR3-3xTM4, inter-TMD FRET
mGluR2-C121A-3xTM4 = target: T2, mGluR2-C121A-3xTM4 (Rattus norvegicus, UniProt P31421, A677S/A681F/A685G/C121A); assay: SiMPull subunit counting in the presence of ligands
T2 construct: expressed in transfected cells; host or cells: HEK 293 T (detergent lysate, pulled down by anti-HA antibody)

mGluR3 [2] = target: T3, mGluR3 (Rattus norvegicus, UniProt P31422); assay: Inter-LBD FRET (N-terminal SNAP-tags), live cells; conditions: for FRET response amplitude: mGluR3, inter-LBD FRET
mGluR3 [3] = target: T3, mGluR3; assay: GIRK channel whole cell patch clamp in HEK 293 T cells; conditions: for GIRK current amplitude: mGluR3
mGluR3 [4] = target: T3, mGluR3; assay: Calcium imaging (G protein chimera, GCaMP6f) in HEK 293 T cells
mGluR3-3xTM4 [5] = target: mGluR3-3xTM4 (Rattus norvegicus, UniProt P31422, F690A/G694A/S686A); assay: Inter-LBD FRET (N-terminal SNAP-tags), live cells; conditions: for FRET response amplitude: mGluR3-3xTM4, inter-LBD FRET
[6] = read-out: Glutamate EC50, calcium imaging, normalized to saturating (1 mM) glutamate
[7] = read-out: Glutamate EC50, LBD FRET, normalized to saturating (1 mM) glutamate, unit inferred

T3 sequence (P31422 23-879): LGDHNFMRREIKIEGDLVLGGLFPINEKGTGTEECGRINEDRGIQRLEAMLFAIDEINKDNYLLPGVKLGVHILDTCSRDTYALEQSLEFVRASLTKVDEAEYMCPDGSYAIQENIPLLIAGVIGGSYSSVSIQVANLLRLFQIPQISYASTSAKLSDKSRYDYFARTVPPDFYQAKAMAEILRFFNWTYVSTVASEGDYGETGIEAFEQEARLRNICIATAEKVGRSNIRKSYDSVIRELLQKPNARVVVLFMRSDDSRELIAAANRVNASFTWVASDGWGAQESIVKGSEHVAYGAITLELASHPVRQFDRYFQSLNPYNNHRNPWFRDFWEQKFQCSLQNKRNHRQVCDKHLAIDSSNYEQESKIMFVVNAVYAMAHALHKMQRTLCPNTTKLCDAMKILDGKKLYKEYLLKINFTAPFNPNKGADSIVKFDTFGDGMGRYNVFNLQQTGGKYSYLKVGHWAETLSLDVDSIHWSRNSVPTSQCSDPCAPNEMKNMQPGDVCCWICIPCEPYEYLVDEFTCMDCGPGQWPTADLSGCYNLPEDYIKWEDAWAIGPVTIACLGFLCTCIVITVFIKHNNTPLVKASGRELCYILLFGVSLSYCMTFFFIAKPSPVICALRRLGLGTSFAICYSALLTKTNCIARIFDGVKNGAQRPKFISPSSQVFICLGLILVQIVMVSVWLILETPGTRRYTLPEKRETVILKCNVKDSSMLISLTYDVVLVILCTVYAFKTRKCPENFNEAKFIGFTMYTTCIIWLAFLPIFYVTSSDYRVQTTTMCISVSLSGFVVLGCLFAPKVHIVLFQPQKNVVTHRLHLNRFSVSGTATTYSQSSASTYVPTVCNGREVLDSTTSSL
Chain of mGluR3-C127A-3xTM4 (P31422 23-879 C127A/S686A/F690A/G694A): as the sequence (P31422 23-879) above, with C105A, S664A, F668A, G672A counted along it
Chain of mGluR3-3xTM4 (Rattus norvegicus, UniProt P31422, F690A/G694A/S686A) (P31422 23-879 S686A/F690A/G694A): as the sequence (P31422 23-879) above, with S664A, F668A, G672A counted along it
Chain of mGluR3-I788A (P31422 23-879 I788A): as the sequence (P31422 23-879) above, with I766A counted along it
T1 sequence (P31421 19-872 C121A): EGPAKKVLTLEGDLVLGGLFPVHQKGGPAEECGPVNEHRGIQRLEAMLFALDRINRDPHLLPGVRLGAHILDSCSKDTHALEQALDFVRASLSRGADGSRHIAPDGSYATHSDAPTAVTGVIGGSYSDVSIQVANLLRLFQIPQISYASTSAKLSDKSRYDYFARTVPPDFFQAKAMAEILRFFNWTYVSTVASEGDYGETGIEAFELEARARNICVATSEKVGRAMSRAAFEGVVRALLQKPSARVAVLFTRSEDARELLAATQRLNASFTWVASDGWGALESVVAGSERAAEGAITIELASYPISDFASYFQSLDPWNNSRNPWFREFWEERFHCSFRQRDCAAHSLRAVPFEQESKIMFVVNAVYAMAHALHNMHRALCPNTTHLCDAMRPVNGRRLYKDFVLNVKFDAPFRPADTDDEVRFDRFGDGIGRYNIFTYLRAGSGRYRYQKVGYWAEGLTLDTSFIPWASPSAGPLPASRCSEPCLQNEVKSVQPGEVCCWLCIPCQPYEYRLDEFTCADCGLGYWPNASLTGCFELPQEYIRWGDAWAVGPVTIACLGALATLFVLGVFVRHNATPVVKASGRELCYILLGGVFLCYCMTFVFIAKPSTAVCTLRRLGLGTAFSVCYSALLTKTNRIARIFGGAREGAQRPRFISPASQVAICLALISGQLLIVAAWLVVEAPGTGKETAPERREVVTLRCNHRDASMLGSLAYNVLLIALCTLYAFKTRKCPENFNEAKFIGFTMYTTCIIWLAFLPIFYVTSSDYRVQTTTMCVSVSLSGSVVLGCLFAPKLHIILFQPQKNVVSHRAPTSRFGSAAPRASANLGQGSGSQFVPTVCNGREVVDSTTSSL
T2 sequence (P31421 19-872 C121A/A677S/A681F/A685G): as the sequence (P31421 19-872 C121A) above, with A659S, A663F, A667G counted along it
Chain of UniProt P31422 (P31422 with tags, fused parts or gaps with the stated changes): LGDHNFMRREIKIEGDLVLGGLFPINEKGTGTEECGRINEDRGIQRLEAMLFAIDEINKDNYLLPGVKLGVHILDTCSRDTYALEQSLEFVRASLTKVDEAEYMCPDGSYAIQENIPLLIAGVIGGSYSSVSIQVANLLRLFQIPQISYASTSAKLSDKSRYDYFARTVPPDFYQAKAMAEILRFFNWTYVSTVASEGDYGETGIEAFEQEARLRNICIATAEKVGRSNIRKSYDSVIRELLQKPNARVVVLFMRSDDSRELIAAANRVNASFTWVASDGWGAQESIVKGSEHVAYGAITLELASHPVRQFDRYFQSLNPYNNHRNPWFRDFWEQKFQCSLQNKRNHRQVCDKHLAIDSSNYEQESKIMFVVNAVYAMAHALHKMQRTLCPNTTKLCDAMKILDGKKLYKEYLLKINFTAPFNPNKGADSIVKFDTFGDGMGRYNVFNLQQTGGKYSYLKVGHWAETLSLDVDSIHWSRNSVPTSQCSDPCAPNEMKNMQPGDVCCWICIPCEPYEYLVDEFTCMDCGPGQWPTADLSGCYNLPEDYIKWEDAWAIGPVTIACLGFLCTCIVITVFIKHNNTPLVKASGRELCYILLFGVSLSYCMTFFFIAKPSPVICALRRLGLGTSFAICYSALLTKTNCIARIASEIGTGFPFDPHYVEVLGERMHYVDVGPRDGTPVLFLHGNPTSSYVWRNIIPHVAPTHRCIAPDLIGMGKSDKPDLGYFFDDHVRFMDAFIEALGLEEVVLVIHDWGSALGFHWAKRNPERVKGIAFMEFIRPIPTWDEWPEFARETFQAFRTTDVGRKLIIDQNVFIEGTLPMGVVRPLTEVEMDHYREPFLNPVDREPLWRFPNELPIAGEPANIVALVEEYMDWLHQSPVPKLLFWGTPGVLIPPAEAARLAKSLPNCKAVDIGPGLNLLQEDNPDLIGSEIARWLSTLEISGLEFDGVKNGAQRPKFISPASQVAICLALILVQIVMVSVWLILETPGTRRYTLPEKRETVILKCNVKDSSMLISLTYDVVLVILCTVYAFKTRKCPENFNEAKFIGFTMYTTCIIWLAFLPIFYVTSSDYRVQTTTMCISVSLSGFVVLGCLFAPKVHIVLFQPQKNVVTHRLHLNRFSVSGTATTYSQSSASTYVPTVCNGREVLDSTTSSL
Chain of mGluR2-3xTM4 (P31421 19-872 A677S/A681F/A685G): as the sequence (P31421 19-872 C121A) above, with A103C, A659S, A663F, A667G counted along it
Chain of mGluR2 (P31421 19-872): as the sequence (P31421 19-872 C121A) above, with A103C counted along it
Chain of mGluR3-S686A (P31422 23-879 S686A): as the sequence (P31422 23-879) above, with S664A counted along it

With `N[C@@H](CCC(=O)O)C(=O)O` [glutamate] the Calcium response amplitude (mGluR3-I788A; Glutamate 10 nM) was 0.00, the Calcium response amplitude (mGluR3-I788A; Glutamate 1 uM) was 0.60 and 0.66 and 0.55 and the Calcium response amplitude (mGluR3-I788A; Glutamate 10 uM) was 0.97 and 1.00 and 0.86. The Calcium response amplitude (mGluR3-I788A; Glutamate 100 uM) was 1.00, the Calcium response amplitude (mGluR3-I788A; Glutamate 1 mM) was 1.00 and the EC50 (mGluR3-I788A; read-out: Glutamate EC50, calcium imaging, normalized to saturating (1 mM) glutamate, unit inferred) was 10430 ± 100 nM. For the same compound, the “% Dimerization” value (mGluR3-C127A-3xTM4) was 75.71% and 66.43% and 55.31% and 68.06% and 59.35% and 70.85%, the FRET response amplitude (mGluR2; Glutamate 10 nM) was 0.00 and the FRET response amplitude (mGluR2; Glutamate 100 nM) was 0.00. For the same compound, the FRET response amplitude (mGluR2; Glutamate 3 uM) was 0.13 and 0.11 and 0.12 and 0.09, the FRET response amplitude (mGluR2; Glutamate 10 uM) was 0.41 and 0.51 and 0.46 and 0.30 and the FRET response amplitude (mGluR2; Glutamate 100 uM) was 0.98 and 1.00 and 0.985. For the same compound, the FRET response amplitude (mGluR2; Glutamate 1 mM) was 1.00, the EC50 (mGluR3-S686A; read-out: Glutamate EC50 (micromolar), calcium imaging, Fig 3F source data) was 5.11 µM and the EC50 (mGluR3-S686A; [6]) was 5.12 ± 0.06 µM. For the same compound, the Calcium response amplitude (mGluR2-3xTM4; Glutamate 1 nM) was 0.00, the Calcium response amplitude (mGluR2-3xTM4; Glutamate 10 nM) was 0.00 and the Calcium response amplitude (mGluR2-3xTM4; Glutamate 100 nM) was 0.26 and 0.30 and 0.14. The Calcium response amplitude (mGluR2-3xTM4; Glutamate 300 nM) was 0.49 and 0.41, the Calcium response amplitude (mGluR2-3xTM4; Glutamate 1 uM) was 0.54 and 0.70 and 0.62 and 0.63 and 0.75 and the Calcium response amplitude (mGluR2-3xTM4; Glutamate 3 uM) was 0.98 and 0.89 and 0.90 and 0.80 and 0.78 and 1.01. For the same compound, the Calcium response amplitude (mGluR2-3xTM4; Glutamate 10 uM) was 0.95 and 1.00 and 0.99, the Calcium response amplitude (mGluR2-3xTM4; Glutamate 100 uM) was 0.96 and 0.99 and 1.00 (2×) and the Calcium response amplitude (mGluR2-3xTM4; Glutamate 1 mM) was 1.00. For the same compound, the “% Dimerization” value (mGluR2-C121A) was 86.45% and 81.10% and 91.37% and 96.00% and 70.30% and 76.67%, the FRET response amplitude (mGluR3-3xTM4 [1]; Glutamate 1 nM) was 0.00 and the FRET response amplitude (mGluR3-3xTM4 [1]; Glutamate 100 nM) was 0.20 and 0.12 and 0.17 and 0.16 and 0.13 and 0.21. The FRET response amplitude (mGluR3-3xTM4 [1]; Glutamate 1 uM) was 0.69 and 0.42 and 0.65 and 0.66, the FRET response amplitude (mGluR3-3xTM4 [1]; Glutamate 10 uM) was 0.75 and 0.99 and 0.89 and the FRET response amplitude (mGluR3-3xTM4 [1]; Glutamate 100 uM) was 0.80 and 0.96. The FRET response amplitude (mGluR3-3xTM4 [1]; Glutamate 1 mM) was 1.00, the EC50 (mGluR3-3xTM4 [1]; read-out: Glutamate EC50, inter-TMD FRET, normalized to saturating (1 mM) glutamate, unit inferred) was 560 ± 100 nM and the “% Dimerization” value (mGluR2-C121A-3xTM4; SNAP-mGluR2-C121A-3xTM4 in presence of the ligand, single replicates per experiment day) was 89.26% and 88.28% and 81.34% and 81.93% and 82.70% and 80.09%. For the same compound, the “effect of ligand on dimerization (SiMPull)” value (mGluR2-C121A-3xTM4; saturating concentration) was “clear increase in dimerization”, the FRET response amplitude (mGluR3 [2]; Glutamate 1 nM) was 0.00 and the FRET response amplitude (mGluR3 [2]; Glutamate 10 nM) was 0.00. The FRET response amplitude (mGluR3 [2]; Glutamate 1 uM) was 0.66 and 0.53, the FRET response amplitude (mGluR3 [2]; Glutamate 3 uM) was 1.00 and 0.63 and the FRET response amplitude (mGluR3 [2]; Glutamate 10 uM) was 1.00 and 0.86. For the same compound, the FRET response amplitude (mGluR3 [2]; Glutamate 100 uM) was 1.00, the EC50 (mGluR3 [2]; [7]) was 640 ± 100 nM and the GIRK current amplitude (mGluR3 [3]; Glutamate 100 nM) was 0.155 and 0.145 and 0.126 and 0.149. For the same compound, the GIRK current amplitude (mGluR3 [3]; Glutamate 1 uM) was 0.541 and 0.995 and 0.692, the GIRK current amplitude (mGluR3 [3]; Glutamate 10 uM) was 0.818 and 1.150 and 0.770 and 0.856 and 1.007 and the GIRK current amplitude (mGluR3 [3]; Glutamate 100 uM) was 1.000. It also gave an EC50 (mGluR3 [3]; read-out: Glutamate EC50, GIRK activation, normalized to saturating (1 mM) glutamate, unit inferred) of 430 ± 100 nM, a Calcium response amplitude (mGluR3 [4]; Glutamate 1 nM, mGluR3) of 0.00 and a Calcium response amplitude (mGluR3 [4]; Glutamate 1 nM, normalized to 1 mM glutamate, replicates) of 0.00. For the same compound, the Calcium response amplitude (mGluR3 [4]; Glutamate 10 nM, mGluR3) was 0.00, the Calcium response amplitude (mGluR3 [4]; Glutamate 10 nM, normalized to 1 mM glutamate, replicates) was 0.00 and the Calcium response amplitude (mGluR3 [4]; Glutamate 100 nM, mGluR3) was 0.23. The Calcium response amplitude (mGluR3 [4]; Glutamate 100 nM, normalized to 1 mM glutamate, replicates) was 0.23, the Calcium response amplitude (mGluR3 [4]; Glutamate 1 uM, mGluR3) was 0.61 and 0.64 and 0.67 and 0.55 and the Calcium response amplitude (mGluR3 [4]; Glutamate 1 uM, normalized to 1 mM glutamate, replicates) was 0.61 and 0.64 and 0.67 and 0.55. For the same compound, the Calcium response amplitude (mGluR3 [4]; Glutamate 2 uM, mGluR3) was 0.66 and 0.77, the Calcium response amplitude (mGluR3 [4]; Glutamate 2 uM, normalized to 1 mM glutamate, replicates) was 0.66 and 0.77 and the Calcium response amplitude (mGluR3 [4]; Glutamate 3 uM, mGluR3) was 0.83 and 0.79. For the same compound, the Calcium response amplitude (mGluR3 [4]; Glutamate 3 uM, normalized to 1 mM glutamate, replicates) was 0.83 and 0.79, the Calcium response amplitude (mGluR3 [4]; Glutamate 5 uM, mGluR3) was 0.89 and 0.95 and 0.77 and the Calcium response amplitude (mGluR3 [4]; Glutamate 5 uM, normalized to 1 mM glutamate, replicates) was 0.89 and 0.95 and 0.77. For the same compound, the Calcium response amplitude (mGluR3 [4]; Glutamate 10 uM, mGluR3) was 0.99 and 0.95 and 0.92, the Calcium response amplitude (mGluR3 [4]; Glutamate 10 uM, normalized to 1 mM glutamate, replicates) was 0.99 and 0.95 and 0.92 and the Calcium response amplitude (mGluR3 [4]; Glutamate 1 mM, mGluR3) was 1.00. For the same compound, the Calcium response amplitude (mGluR3 [4]; Glutamate 1 mM, normalized to 1 mM glutamate, replicates) was 1.00, the EC50 (mGluR3 [4]; [6]) was 560 ± 60 nM and the FRET response amplitude (mGluR3-3xTM4 [5]; Glutamate 1 nM) was 0.00. The FRET response amplitude (mGluR3-3xTM4 [5]; Glutamate 10 nM) was 0.00, the FRET response amplitude (mGluR3-3xTM4 [5]; Glutamate 1 uM) was 0.63 and 0.58 and the FRET response amplitude (mGluR3-3xTM4 [5]; Glutamate 3 uM) was 0.78 and 0.90. The FRET response amplitude (mGluR3-3xTM4 [5]; Glutamate 10 uM) was 0.99 and 0.96 and 1.05, the FRET response amplitude (mGluR3-3xTM4 [5]; Glutamate 1 mM) was 1.00 and the EC50 (mGluR3-3xTM4 [5]; [7]) was 670 ± 50 nM.
